Here are results for nine compounds from paper PMC4109837 (2014).

Assay [1] deals with NOX-S93 (L-RNA, aptamer, four 2'-deoxyribonucleotides (positions not given; Figure 1)) GCGUGAAUAGCCGUUGAAACGCCUUUAGAGAAGCACUAGCACGC
Kind of assay: competition in S1PR3 calcium release cell assay. Particulars: UltraCHO medium, 20 mM Hepes, 100 nM NOX-S93, 10 nM S1P.

Assay [2] shares this test system. Kind of assay: neutralisation in S1PR3 calcium release cell assay, direct. The conditions noted are these: UltraCHO medium, 20 mM Hepes.

For `CCCCCCCCCCCCC/C=C/[C@@H](O)[C@@H](N)CO`, the binding entry in assay [1] (up to 1 μM competitor) is given as “no”.
As for `CCCCCCCCCCCC/C=C/[C@@H](O)[C@@H](N)COP(=O)(O)O`, the binding result in assay [2] (10 nM C17-S1P) is on record as “yes”.
As for `CCCCCCCCCCCCC/C=C/[C@@H](O)[C@H](COP(=O)(O)O)NC(=O)CCCCCCCCCCCCCCC`, in assay [1] (up to 3 μM competitor), the binding result is listed as “no”.
On the same count and under the same terms, to `CCCCCCCCCCCCC/C=C/[C@@H](O)[C@H](CO)NC(C)=O` belongs “no”.
Regarding `CCCCCCCCCCCCCCC/C=C/[C@@H](O)[C@@H](N)COP(=O)(O)O`, the binding entry in assay [2] (80 nM C20-S1P) is given as “yes”.
`CCCCCCCCCCCCC/C=C/[C@@H](O)[C@@H](N)COP(=O)(O)O`: the binding entry in assay [2] (10 nM S1P) is listed as “yes”.
In the case of `CCCCCCCC/C=C\CCCCCCCC(=O)OC[C@@H](O)COP(=O)(O)O`, the binding result in assay [2] (50 nM LPA, no inhibition) was “no”.
In the case of `CCCCCCCCCCCCC/C=C/[C@@H](O)[C@@H](N)COP(=O)([O-])OCC[N+](C)(C)C`, in assay [1] (up to 300 nM competitor), the binding entry is reported as “no”.
In the case of `CCCCCCCCCCCCCCC[C@@H](O)[C@@H](N)COP(=O)(O)O`, in assay [2] (30 nM dihydro-S1P), the binding result is listed as “yes”.
